Data as given in ChEMBL document CHEMBL1697692, “Developing structure-activity relationships for the prediction of hepatotoxicity” (Chem Res Toxicol, 2010).

Tested on: Hepatotoxicity
Assay: Literature-mined public compounds from Greene et al multi-species hepatotoxicity modelling dataset

Row | Molecule | Hepatotoxicity
1 | CCc1nn(CCCN2CCN(c3cccc(Cl)c3)CC2)c(=O)n1CCOc1ccccc1 [NEFAZODONE] | HH: Evidence of human hepatotoxicity
2 | CC(=O)CC(c1ccc([N+](=O)[O-])cc1)c1c(O)c2ccccc2oc1=O (configuration not stated) [ACENOCOUMAROL] | HH: Evidence of human hepatotoxicity
3 | C[C@]12CC[C@@H]3c4ccc(O)cc4CC[C@H]3[C@@H]1CCC2=O [ESTRONE] | HH: Evidence of human hepatotoxicity
4 | CC(CN1c2ccccc2Sc2ccccc21)N(C)C.Cl (configuration not stated) [PROMETHAZINE HYDROCHLORIDE] | NE: No evidence of hepatotoxicity in any species
5 | CC(=O)Nc1ccc(O)cc1 [ACETAMINOPHEN] | HH: Evidence of human hepatotoxicity
6 | CC(c1cc2ccccc2s1)N(O)C(N)=O (configuration not stated) [ZILEUTON] | HH: Evidence of human hepatotoxicity
7 | C=C1c2cccc(O)c2C(=O)C2=C(O)[C@]3(O)C(=O)C(C(N)=O)=C(O)[C@@H](N(C)C)[C@@H]3[C@@H](O)[C@H]12.Cl [METHACYCLINE HYDROCHLORIDE] | HH: Evidence of human hepatotoxicity
8 | CCOC(=O)[C@H](CCc1ccccc1)N[C@@H](C)C(=O)N1Cc2ccccc2C[C@H]1C(=O)O | HH: Evidence of human hepatotoxicity
9 | C[C@@H](CO)NC(=O)[C@@H]1C=C2c3cccc4[nH]cc(c34)C[C@H]2N(C)C1.O=C(O)/C=C\C(=O)O [ERGONOVINE MALEATE] | NE: No evidence of hepatotoxicity in any species
10 | N[C@@H](Cc1ccc(O)c(O)c1)C(=O)O [LEVODOPA] | NE: No evidence of hepatotoxicity in any species
11 | CCCC[C@@H](CC)COC(=O)c1ccccc1C(=O)OC[C@@H](CC)CCCC [BIS(2-ETHYLHEXYL)PHTHALATE] | AH: Evidence for animal hepatotoxicity but not tested in humans
12 | CN(N=O)C(=O)N[C@@H](C=O)[C@@H](O)[C@H](O)[C@H](O)CO [STREPTOZOCIN] | NE: No evidence of hepatotoxicity in any species
13 | CNC(=O)Oc1ccc2c(c1)[C@]1(C)CCN(C)[C@@H]1N2C [PHYSOSTIGMINE] | NE: No evidence of hepatotoxicity in any species
14 | Brc1ccccc1 [BROMOBENZENE] | HH: Evidence of human hepatotoxicity
15 | CCOC(=O)c1ncn2c1CN(C)C(=O)c1cc(F)ccc1-2 [FLUMAZENIL] | NE: No evidence of hepatotoxicity in any species
16 | Nc1nc2ccc(OC(F)(F)F)cc2s1 [RILUZOLE] | HH: Evidence of human hepatotoxicity
17 | CCc1c(C)[nH]c2c1C(=O)C(CN1CCOCC1)CC2.Cl (configuration not stated) [MOLINDONE HYDROCHLORIDE] | HH: Evidence of human hepatotoxicity
18 | COc1cccc(OC)c1C(=O)N[C@@H]1C(=O)N2[C@@H]1SC(C)(C)[C@@H]2C(=O)[O-].[Na+] | HH: Evidence of human hepatotoxicity
19 | Cl.Cl.O=C(CCN1CCN2CCCC2C1)N1c2ccccc2Sc2ccc(Cl)cc21 (configuration not stated) [AZACLORZINE HYDROCHLORIDE] | HH: Evidence of human hepatotoxicity
20 | CN(C)C(=O)C(CCN1CCC(O)(c2ccc(Cl)cc2)CC1)(c1ccccc1)c1ccccc1.Cl [LOPERAMIDE HYDROCHLORIDE] | NE: No evidence of hepatotoxicity in any species
21 | Oc1ncc(N(CCCl)CCCl)c(O)n1 [URACIL MUSTARD] | HH: Evidence of human hepatotoxicity

Row | Molecule | Hepatotoxicity
22 | C#C[C@]1(O)CC[C@H]2[C@@H]3CCc4cc(OC)ccc4[C@H]3CC[C@@]21C [MESTRANOL] | HH: Evidence of human hepatotoxicity
23 | CN(Cc1cnc2nc(N)nc(N)c2n1)c1ccc(C(=O)N[C@@H](CCC(=O)O)C(=O)O)cc1 [METHOTREXATE] | HH: Evidence of human hepatotoxicity
24 | CC1(C)S[C@@H]2[C@H](NC(=O)[C@H](NC(=O)N3CCNC3=O)c3ccccc3)C(=O)N2[C@H]1C(=O)[O-].[Na+] [AZLOCILLIN SODIUM] | NE: No evidence of hepatotoxicity in any species
25 | CC(=O)OCC(=O)[C@@]1(O)CC[C@H]2[C@@H]3CCC4=CC(=O)CC[C@]4(C)[C@@]3(F)[C@@H](O)C[C@@]21C [FLUDROCORTISONE ACETATE] | NE: No evidence of hepatotoxicity in any species
26 | Clc1ccc(CCC(Cn2ccnc2)Sc2c(Cl)cccc2Cl)cc1.O=[N+]([O-])O (configuration not stated) [BUTOCONAZOLE NITRATE] | NE: No evidence of hepatotoxicity in any species
27 | S=C=Nc1ccccc1 [PHENYLISOTHIOCYANATE] | AH: Evidence for animal hepatotoxicity but not tested in humans
28 | N=C(N)NCCN1CCCCCCC1.N=C(N)NCCN1CCCCCCC1.O=S(=O)(O)O [GUANETHIDINE SULFATE] | HH: Evidence of human hepatotoxicity
29 | O=C([O-])O.[Na+] [SODIUM BICARBONATE] | AH: Evidence for animal hepatotoxicity but not tested in humans
30 | CN1C(=O)OC(C)(C)C1=O [TRIMETHADIONE] | HH: Evidence of human hepatotoxicity
31 | C[C@H](N)Cc1ccccc1.C[C@H](N)Cc1ccccc1.O=S(=O)(O)O [DEXTROAMPHETAMINE SULFATE] | HH: Evidence of human hepatotoxicity
32 | CN(C)CCCC1(c2ccc(F)cc2)OCc2cc(C#N)ccc21 (configuration not stated) [CITALOPRAM] | WE: Weak evidence (<10 case reports) of human hepatotoxicity
33 | CC(=O)[C@H]1CC[C@H]2[C@@H]3CCC4=CC(=O)CC[C@]4(C)[C@H]3CC[C@]12C [PROGESTERONE] | HH: Evidence of human hepatotoxicity
34 | Br.COc1ccc2c(c1)[C@]13CCCC[C@@H]1[C@H](C2)N(C)CC3.O [DEXTROMETHORPHAN HYDROBROMIDE] | NE: No evidence of hepatotoxicity in any species
35 | S=C=Nc1ccc2ccccc2c1 | WE: Weak evidence (<10 case reports) of human hepatotoxicity
36 | CS(=O)(=O)O.Cc1ccc(N(CC2=NCCN2)c2cccc(O)c2)cc1 [PHENTOLAMINE MESYLATE] | HH: Evidence of human hepatotoxicity
37 | CCCCNc1ccc(C(=O)OCCN(C)C)cc1.Cl [TETRACAINE HYDROCHLORIDE] | NE: No evidence of hepatotoxicity in any species
38 | N[C@@H]1[C@H]2CN(c3nc4c(cc3F)c(=O)c(C(=O)O)cn4-c3ccc(F)cc3F)C[C@@H]12 [TROVAFLOXACIN] | HH: Evidence of human hepatotoxicity
39 | CC(=O)[C@H]1[C@H](C#N)C[C@H]2[C@@H]3CC=C4C[C@@H](O)CC[C@]4(C)[C@H]3CC[C@@]21C [PREGNENOLONE CARBONITRILE] | AH: Evidence for animal hepatotoxicity but not tested in humans
40 | ClCCCl [1,2-DICHLOROETHANE] | AH: Evidence for animal hepatotoxicity but not tested in humans
41 | CC(CCc1ccccc1)NCC(O)c1ccc(O)c(C(N)=O)c1 (configuration not stated) [LABETALOL] | HH: Evidence of human hepatotoxicity
42 | C[C@@H]1C[C@H]2[C@@H]3CCC4=CC(=O)C=C[C@]4(C)[C@@]3(Cl)[C@@H](O)C[C@]2(C)[C@@]1(OC(=O)c1ccco1)C(=O)CCl [MOMETASONE FUROATE] | NE: No evidence of hepatotoxicity in any species

Row | Molecule | Hepatotoxicity
43 | NCCBr [BROMOETHANAMINE] | AH: Evidence for animal hepatotoxicity but not tested in humans
44 | C[C@H](O)C(=O)Nc1c(I)c(C(=O)NC(CO)CO)c(I)c(C(=O)NC(CO)CO)c1I [IOPAMIDOL] | HH: Evidence of human hepatotoxicity
45 | O=c1[nH]c2ccccc2n1C1CCN(CCCC(c2ccc(F)cc2)c2ccc(F)cc2)CC1 [PIMOZIDE] | NE: No evidence of hepatotoxicity in any species
46 | COc1cc(NS(C)(=O)=O)ccc1Nc1c2ccccc2nc2ccccc12.Cl [AMSACRINE HYDROCHLORIDE] | HH: Evidence of human hepatotoxicity
47 | O=C(O)c1cc(=O)c2c(OCC(O)COc3cccc4oc(C(=O)O)cc(=O)c34)cccc2o1 [CROMOLYN] | NE: No evidence of hepatotoxicity in any species
48 | CYANOCOBALAMIN | NE: No evidence of hepatotoxicity in any species
49 | CC1(c2ccccc2)Cc2cc(OCC(=O)O)c(Cl)c(Cl)c2C1=O (configuration not stated) [INDACRINONE] | HH: Evidence of human hepatotoxicity
50 | CC(C)NCC(O)COc1cccc2ccccc12 (configuration not stated) [PROPRANOLOL] | NE: No evidence of hepatotoxicity in any species
51 | C[C@H](CCC(=O)O)[C@H]1CC[C@H]2[C@@H]3CC[C@@H]4C[C@H](O)CC[C@]4(C)[C@H]3CC[C@]12C [LITHOCHOLIC ACID] | AH: Evidence for animal hepatotoxicity but not tested in humans
52 | Cl.N [AMMONIUM CHLORIDE] | NE: No evidence of hepatotoxicity in any species
53 | CO[C@@H]1[C@@H](OC(N)=O)[C@@H](O)[C@H](Oc2ccc3c(O)c(NC(=O)c4ccc(O)c(CC=C(C)C)c4)c(=O)oc3c2C)OC1(C)C [NOVOBIOCIN] | HH: Evidence of human hepatotoxicity
54 | CCN(CC)CCNc1ccc(CO)c2sc3ccccc3c(=O)c12 [HYCANTHONE] | HH: Evidence of human hepatotoxicity
55 | Cc1ccccc1C(OCCN(C)C)c1ccccc1.O=C(O)CC(O)(CC(=O)O)C(=O)O (configuration not stated) [ORPHENADRINE CITRATE] | NE: No evidence of hepatotoxicity in any species
56 | CCc1nc(N)nc(N)c1-c1ccc(Cl)cc1 [PYRIMETHAMINE] | HH: Evidence of human hepatotoxicity
57 | CC(=O)O[C@H]1C(=O)[C@@]2(C)[C@H]([C@H](OC(=O)c3ccccc3)[C@]3(O)C[C@H](OC(=O)[C@H](O)[C@@H](NC(=O)c4ccccc4)c4ccccc4)C(C)=C1C3(C)C)[C@]1(OC(C)=O)CO[C@@H]1C[C@@H]2O [PACLITAXEL] | HH: Evidence of human hepatotoxicity
58 | CCOc1ccc2ccccc2c1C(=O)N[C@@H]1C(=O)N2[C@@H]1SC(C)(C)[C@@H]2C(=O)[O-].O.[Na+] [NAFCILLIN SODIUM] | WE: Weak evidence (<10 case reports) of human hepatotoxicity
59 | COc1cc(C)c(/C=C/C(C)=C/C=C/C(C)=C/C(=O)O)c(C)c1C [ACITRETIN] | HH: Evidence of human hepatotoxicity
60 | Cc1ccc(C(=O)c2ccc(CC(=O)O)n2C)cc1 [TOLMETIN] | HH: Evidence of human hepatotoxicity
61 | Cc1cn([C@H]2C=C[C@@H](CO)O2)c(=O)[nH]c1=O [STAVUDINE] | HH: Evidence of human hepatotoxicity
62 | C[C@H](CCC(=O)NCCS(=O)(=O)O)[C@H]1CC[C@H]2[C@@H]3[C@@H](O)C[C@@H]4C[C@H](O)CC[C@]4(C)[C@H]3CC[C@]12C [TAURURSODIOL] | HH: Evidence of human hepatotoxicity
